Test results from patent publication US6132750A (Coletica, priority 1998, dated 2000).

Experiment: Inhibition of the Fe2+ induced radical degradation of hyaluronic acid (viscosity drop)
Details: for Index of protection (%): hyaluronic acid 10 g/l, Fe2+ 620 ppm; for effect on the depolymerisation (radical cleavage) of hyaluronic acid in the presence of iron: in words
Description: The chelating microspheres prepared according to I2 are used to evaluate their capacity, via the trapping of ferrous iron Fe2+, to inhibit the radical degradation of hyaluronic acid, glycosarinoglycan implied in the moisturisation of the human dermis, which is therefore a particularly important target to protect in cosmetic and dermo-pharmaceutical applications.
A 10 g/l solution of hyaluronic acid of high molecular weight (>1,000,000g/mol or Daltons) is prepared in demineralised water. To this solution is added an amount of Fe2+ of 620 ppm.
Other chelating agents which are conventionally used in cosmetics were used and compared to the chelating microspheres, for their capacity to reduce the radical degradation of hyaluronic acid. Indices of protection, expressed in % of protection, are calculated by carrying out a ratio of the drop in viscosity observed by the presence of iron Fe2+ (620 ppm) in the presence of the chelating agent studied, and the drop in viscosity observed with and without iron Fe2+.

Molecule: O/N=C(/C(=N/O)c1ccco1)c1ccco1 [2-furyldioxime]
- Index of protection (%) (concentration used 1.56 g/l): 23.5%
- Index of protection (%) (concentration used 9.37 g/l): 50%

Molecule: O=C(O)CN(CCN(CC(=O)O)CC(=O)O)CC(=O)O [EDTA]
- effect on the depolymerisation (radical cleavage) of hyaluronic acid in the presence of iron: accelerated

Molecule: NO [Hydroxylamine]
- Index of protection (%) (concentration used 6.25 g/l): 0%

Molecule: Transferrin
- Index of protection (%) (concentration used 125 mg/l): 8.7%
- effect on the depolymerisation (radical cleavage) of hyaluronic acid in the presence of iron: accelerated
